Results taken from ChEMBL document CHEMBL5331105, “Newly Synthesized 3-Indolyl Furanoid Inhibits Matrix Metalloproteinase-9 Activity and Prevents Nonsteroidal Anti-inflammatory Drug-Induced Gastric Ulceration” (J Med Chem, 2023).
pIC50: −log10 of the molar value. The source made the active and inactive calls. The rule behind the calls is not given here.

Key:
Mus musculus [1] = test: Antiulcer activity in indomethacin-induced Balb/c mouse model of gastric ulcer assessed as mean ulcer index at 50 mg/kg, po pre-administered with compound for 30 mins followed by indomethacin administration and measured after 4 hrs (reference value: 52.5 +/- 1.4); type: functional; conditions: time 4.5 hrs
Mus musculus [2] = test: Antiulcer activity in indomethacin-induced Balb/c mouse model of gastric ulcer assessed as inhibition of ulceration at 50 mg/kg, po pre-administered with compound for 30 mins followed by indomethacin administration and measured after 4 hrs relative to control; type: functional; conditions: time 4.5 hrs
Mus musculus [3] = test: Antiulcer activity in indomethacin-induced Balb/c mouse model of gastric ulcer assessed as mean ulcer index at 12 mg/kg, po pre-administered with compound for 30 mins followed by indomethacin administration and measured after 4 hrs (reference value: 52.5 +/- 1.4); type: functional; conditions: time 4.5 hrs
Mus musculus [4] = test: Antiulcer activity in indomethacin-induced Balb/c mouse model of gastric ulcer assessed as inhibition of ulceration at 12 mg/kg, po pre-administered with compound for 30 mins followed by indomethacin administration and measured after 4 hrs relative to control; type: functional; conditions: time 4.5 hrs
[5] = Tmax in Sprague-Dawley rat at 250 mg/kg, po administered via gavage by HPLC analysis; type: ADME, organism-based; conditions: in vivo
[6] = AUC in Sprague-Dawley rat at 250 mg/kg, po administered via gavage by HPLC analysis; type: ADME, organism-based; set-up: dose 250 mg/kg, route po; conditions: in vivo
[7] = Toxicity in Balb/c mouse assessed as mortality at 150 to 300 mg/kg, po administered via gavage for 25 days; type: organism-based; conditions: in vivo, 600 h, dose 150-300 mg/kg, time 25 day
[8] = Toxicity in Balb/c mouse assessed as lethargy at 150 to 300 mg/kg, po administered via gavage for 25 days; type: organism-based; conditions: in vivo, 600 h, dose 150-300 mg/kg, time 25 day
[9] = Toxicity in Balb/c mouse assessed as abdominal distension at 150 to 300 mg/kg, po administered via gavage for 25 days; type: organism-based; conditions: in vivo, 600 h, dose 150-300 mg/kg, time 25 day
[10] = Toxicity in Balb/c mouse assessed as fur loss at 150 to 300 mg/kg, po administered via gavage for 25 days; type: organism-based; conditions: in vivo, 600 h, dose 150-300 mg/kg, time 25 day
[11] = Toxicity in Balb/c mouse assessed as hunching at 150 to 300 mg/kg, po administered via gavage for 25 days; type: organism-based; conditions: in vivo, 600 h, dose 150-300 mg/kg, time 25 day
[12] = Toxicity in Balb/c mouse assessed as effect on body weight at 150 to 300 mg/kg, po administered via gavage for 25 days; type: organism-based; conditions: in vivo, 600 h, dose 150-300 mg/kg, time 25 day
[13] = target: T1, Prostaglandin G/H synthase 2 (Homo sapiens, UniProt P35354); test: Inhibition of COX2 (unknown origin) preincubated with compound for 5 mins followed by substrate addition and measured after 5 mins by fluorescence spectrophotometer analysis
T1 sequence (P35354 whole entry): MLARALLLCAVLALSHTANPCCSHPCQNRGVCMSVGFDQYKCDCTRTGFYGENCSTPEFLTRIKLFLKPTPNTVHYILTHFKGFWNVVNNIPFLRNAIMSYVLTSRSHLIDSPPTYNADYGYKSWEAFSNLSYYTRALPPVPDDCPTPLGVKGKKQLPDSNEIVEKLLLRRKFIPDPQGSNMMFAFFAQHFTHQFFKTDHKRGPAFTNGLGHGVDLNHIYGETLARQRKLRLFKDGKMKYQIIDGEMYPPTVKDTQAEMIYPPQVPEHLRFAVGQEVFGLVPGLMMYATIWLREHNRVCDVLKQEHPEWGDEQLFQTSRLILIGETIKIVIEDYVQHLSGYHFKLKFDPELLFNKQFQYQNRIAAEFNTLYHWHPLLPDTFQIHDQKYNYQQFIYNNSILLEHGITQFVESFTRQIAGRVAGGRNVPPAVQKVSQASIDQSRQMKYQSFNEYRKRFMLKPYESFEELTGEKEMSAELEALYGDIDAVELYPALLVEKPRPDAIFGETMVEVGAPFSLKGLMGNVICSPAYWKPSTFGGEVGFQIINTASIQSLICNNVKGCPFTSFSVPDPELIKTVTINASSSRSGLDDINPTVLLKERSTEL

[14] = target: 72 kDa type IV collagenase (Homo sapiens) (UniProt P08253); test: Inhibition of MMP-2 (unknown origin) upto 500 uM incubated for 3 hrs by SDS-PAGE analysis
Mus musculus [15] = test: (§1) Antiulcer activity in indomethacin-induced Balb/c mouse model of gastric ulcer assessed as reduction in gastric tissue injury at 50 mg/kg, po pre-administered with compound for 30 mins followed by indomethacin administration and measured after 4 hrs by H&E staining based analysis; type: functional, organism-based; conditions: time 4.5 hrs
Mus musculus [16] = test: as §1, with “prevention of inflammatory cell infiltration” for “reduction in gastric tissue injury”, “analysis relative to control” for “analysis”; type: functional; conditions: time 4.5 hrs
Mus musculus [17] = test: Antiulcer activity in indomethacin-induced Balb/c mouse model of gastric ulcer assessed as reduction in mucosal injury at 50 mg/kg, po pre-administered with compound for 30 mins followed by indomethacin administration and measured after 4 hrs by H&E staining based analysis relative to control; type: functional; set-up: scale not given: the % may be the effect or the level left; conditions: time 4.5 hrs
Mus musculus [18] = test: as §1, with “inflammatory cell infiltration” for “reduction in gastric tissue injury”, “analysis (reference value: 147 +/- 5.2%)” for “analysis”; type: functional; conditions: time 4.5 hrs
Mus musculus [19] = test: Antiulcer activity in indomethacin-induced Balb/c mouse model of gastric ulcer assessed as cell injury in mucosa at 50 mg/kg, po pre-administered with compound for 30 mins followed by indomethacin administration and measured after 4 hrs by H&E staining based analysis (reference value: 70+/- 6.5 %); type: functional; conditions: time 4.5 hrs
Mus musculus [20] = test: Antiulcer activity in indomethacin-induced Balb/c mouse model of gastric ulcer assessed as inhibition of gastric mucosal apoptosis at 50 mg/kg, po pre-administered with compound for 30 mins followed by indomethacin administration and measured after 4 hrs by TUNEL assay; type: functional, organism-based; conditions: time 4.5 hrs
[21] = target: T2, Matrix metalloproteinase-9 (Homo sapiens, UniProt P14780); test: Inhibition of human MMP-9 at 500 uM incubated for 3 hrs by SDS-PAGE based gelatin zymography analysis
[22] = target: T2, Matrix metalloproteinase-9; test: Inhibition of human MMP-9 incubated for 3 hrs by SDS-PAGE based gelatin zymography analysis
Mus musculus [23] = test: Antioxidant activity in indomethacin-induced Balb/c mouse model of gastric ulcer assessed as lipid peroxidation by measuring TBARS activity in stomach at 50 mg/kg, po pre-administered with compound for 30 mins followed by indomethacin administration and measured after 4 hrs by TBARS assay (reference value: 1.40 +/- 0.03 nmol/mg); type: functional; conditions: time 4.5 hrs
Mus musculus [24] = test: In vivo inhibition of MMP-9 expression in indomethacin-induced Balb/c mouse model of gastric ulcer at 50 mg/kg, po pre-administered with compound for 30 mins followed by indomethacin administration and measured after 4 hrs by PI staining based immunofluorescence analysis; type: functional, organism-based; conditions: time 4.5 hrs
Mus musculus [25] = test: In vivo inhibition of MMP-9 activity in indomethacin-induced Balb/c mouse model of gastric ulcer at 50 mg/kg, po pre-administered with compound for 30 mins followed by indomethacin administration and measured after 4 hrs by SDS-PAGE based gelatin zymography method; type: functional, organism-based; conditions: time 4.5 hrs
Mus musculus [26] = test: Antiulcer activity in indomethacin-induced Balb/c mouse model of gastric ulcer assessed as intact epithelial layer in gastric tissue at 50 mg/kg, po pre-administered with compound for 30 mins followed by indomethacin administration and measured after 4 hrs by H&E staining based analysis; type: functional, organism-based; conditions: time 4.5 hrs

T2 sequence (P14780 whole entry): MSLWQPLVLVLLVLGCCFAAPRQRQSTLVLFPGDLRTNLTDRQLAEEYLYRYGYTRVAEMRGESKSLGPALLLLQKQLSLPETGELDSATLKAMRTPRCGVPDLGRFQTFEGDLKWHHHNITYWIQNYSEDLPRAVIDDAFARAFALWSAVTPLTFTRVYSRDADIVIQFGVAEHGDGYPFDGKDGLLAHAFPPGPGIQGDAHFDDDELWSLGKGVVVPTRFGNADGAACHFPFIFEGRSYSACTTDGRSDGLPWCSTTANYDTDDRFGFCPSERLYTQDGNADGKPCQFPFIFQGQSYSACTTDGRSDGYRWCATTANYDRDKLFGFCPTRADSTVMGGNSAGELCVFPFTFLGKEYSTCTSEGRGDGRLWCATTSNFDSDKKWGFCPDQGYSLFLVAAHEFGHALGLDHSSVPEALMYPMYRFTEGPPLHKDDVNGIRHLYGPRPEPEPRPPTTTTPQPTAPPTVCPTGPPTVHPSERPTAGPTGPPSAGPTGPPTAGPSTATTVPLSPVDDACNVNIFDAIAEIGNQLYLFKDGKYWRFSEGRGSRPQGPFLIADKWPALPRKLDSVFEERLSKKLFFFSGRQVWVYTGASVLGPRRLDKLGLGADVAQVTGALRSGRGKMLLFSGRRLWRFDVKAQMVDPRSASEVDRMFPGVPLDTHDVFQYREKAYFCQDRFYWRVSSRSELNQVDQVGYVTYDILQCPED
Chain of 72 kDa type IV collagenase (Homo sapiens) (P08253 110-660 limits assumed): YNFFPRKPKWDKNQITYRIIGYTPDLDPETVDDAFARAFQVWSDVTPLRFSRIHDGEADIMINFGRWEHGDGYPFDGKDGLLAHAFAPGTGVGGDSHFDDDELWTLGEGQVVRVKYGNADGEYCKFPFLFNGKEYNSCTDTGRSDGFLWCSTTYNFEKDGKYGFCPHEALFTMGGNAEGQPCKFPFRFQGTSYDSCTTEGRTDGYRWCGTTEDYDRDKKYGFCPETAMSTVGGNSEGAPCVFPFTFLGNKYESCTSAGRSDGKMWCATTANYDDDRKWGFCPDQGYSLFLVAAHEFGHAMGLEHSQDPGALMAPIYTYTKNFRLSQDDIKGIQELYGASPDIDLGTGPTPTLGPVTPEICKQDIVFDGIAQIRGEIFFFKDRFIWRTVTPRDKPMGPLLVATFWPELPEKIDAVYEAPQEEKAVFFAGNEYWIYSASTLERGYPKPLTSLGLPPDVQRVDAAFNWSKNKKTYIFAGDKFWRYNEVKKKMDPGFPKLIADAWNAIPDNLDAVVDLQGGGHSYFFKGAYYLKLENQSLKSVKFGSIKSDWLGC

`COc1cccc2c1c(-c1cc(-c3ccccc3)oc1-c1ccccc1)cn2C` showed a UI (Mus musculus [1]) of 23.25 and an inhibition in vivo at 50 mg/kg (Mus musculus [2]) of 56%.
Compound `c1ccc(-c2cc(-c3c(-c4ccccc4)[nH]c4ccccc34)c(-c3ccccc3)o2)cc1` has a UI (Mus musculus [1]) of 18.25 and an inhibition in vivo at 50 mg/kg (Mus musculus [2]) of 65%.
For `COc1ccc2[nH]cc(-c3cc(-c4ccccc4)oc3-c3ccccc3)c2c1`, the UI (Mus musculus [1]) was 9 and the inhibition in vivo at 50 mg/kg (Mus musculus [2]) was 83%.
Compound `Oc1ccc2[nH]cc(-c3cc(-c4ccccc4)oc3-c3ccccc3)c2c1` has a UI (Mus musculus [1]) of 11.5 and an inhibition in vivo at 50 mg/kg (Mus musculus [2]) of 78%.
Work on `Oc1ccccc1-c1[nH]c2ccccc2c1-c1cc(-c2ccccc2)oc1-c1ccccc1` yielded a UI (Mus musculus [1]) of 14.5 and an inhibition in vivo at 50 mg/kg (Mus musculus [2]) of 72%.
With `COc1ccc2[nH]cc(-c3cc(-c4ccccc4)oc3-c3ccccc3)c2c1OC` the UI (Mus musculus [1]) was 13.5 and the inhibition in vivo at 50 mg/kg (Mus musculus [2]) was 74%.
With `c1ccc(-c2cc(-c3c[nH]c4ccccc34)c(-c3ccccc3)o2)cc1` the UI (Mus musculus [1]) was 20.2 and the inhibition in vivo at 50 mg/kg (Mus musculus [2]) was 62%.
`COc1ccc2[nH]c([S+]([O-])Cc3ncc(C)c(OC)c3C)nc2c1` (stereo not given) [OMEPRAZOLE] gave a UI (Mus musculus [3]) of 0.5 and an inhibition in vivo at 12 mg/kg (Mus musculus [4]) of 100%.
Work on `COc1cccc2[nH]cc(-c3cc(-c4ccccc4)oc3-c3ccccc3)c12` yielded a UI (Mus musculus [1]) of 2.5, an inhibition in vivo at 50 mg/kg (Mus musculus [2]) of 95% and a Tmax [5] of 6 h. The AUC [6] was 1270 µg·h/mL, the Activity [7] was “Non-Toxic” and the Activity [8] was “Non-Toxic”. The Activity [9] was “Non-Toxic”, the Activity [10] was “Non-Toxic” and the Activity [11] was “Non-Toxic”. The Activity [12] was “Non-Toxic”, the pIC50 [13] was less than 4.00 and the inhibition [14] was “inactive”. The Activity (Mus musculus [15]) was “Active”, the Activity (Mus musculus [16]) was 100% and the Activity (Mus musculus [17]) was roughly 90%. For the same compound, the Activity (Mus musculus [18]) was 92%, the Activity (Mus musculus [19]) was 12% and the Activity (Mus musculus [20]) was “Active”. The inhibition [21] was “Active”, the pIC50 [22] was roughly 4.30 and the Activity (Mus musculus [23]) was 0.47 nmol/mg. The inhibition (Mus musculus [24]) was “Active”, the inhibition (Mus musculus [25]) was “Active” and the Activity (Mus musculus [26]) was “Active”.
